Holding throughout (assay): relative viability (nuclei count vs DMSO), 5 days (fraction); higher = more cells survive
Compound in the experiment “Carfilzomib + Olaparib”: CC(C)C[C@H](NC(=O)[C@H](CCc1ccccc1)NC(=O)CN1CCOCC1)C(=O)N[C@@H](Cc1ccccc1)C(=O)N[C@@H](CC(C)C)C(=O)[C@@]1(C)CO1 [Carfilzomib] + O=C(c1cc(Cc2n[nH]c(=O)c3ccccc23)ccc1F)N1CCN(C(=O)C2CC2)CC1 [Olaparib] (partner 8 µM)
The essentials:
(§1)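 Values are medians from duplicate plates. Each reflects relative viability, defined as the nuclei count of treated wells over that of vehicle wells. Lung cancer cell lines in 1536-well plates were pin-tool dosed one day after seeding with one drug alone or with a fixed anchor-drug dose plus five library-drug doses (not always all listed) in √10 steps, then fixed, stained and imaged at 4× after 5 days.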

Compound in the experiment “Olaparib + Bortezomib”: O=C(c1cc(Cc2n[nH]c(=O)c3ccccc23)ccc1F)N1CCN(C(=O)C2CC2)CC1 [Olaparib] + CC(C)C[C@H](NC(=O)[C@H](Cc1ccccc1)NC(=O)c1cnccn1)B(O)O [Bortezomib] (partner 0.002 µM)
A digest of the protocol: as §1

Compound in the experiment “Carfilzomib + Crizotinib”: CC(C)C[C@H](NC(=O)[C@H](CCc1ccccc1)NC(=O)CN1CCOCC1)C(=O)N[C@@H](Cc1ccccc1)C(=O)N[C@@H](CC(C)C)C(=O)[C@@]1(C)CO1 [Carfilzomib] + C[C@@H](Oc1cc(-c2cnn(C3CCNCC3)c2)cnc1N)c1c(Cl)ccc(F)c1Cl [Crizotinib] (partner 1 µM)
The essentials:
as §1

Compound in the experiment “Olaparib + Dasatinib”: O=C(c1cc(Cc2n[nH]c(=O)c3ccccc23)ccc1F)N1CCN(C(=O)C2CC2)CC1 [Olaparib] + Cc1nc(Nc2ncc(C(=O)Nc3c(C)cccc3Cl)s2)cc(N2CCN(CCO)CC2)n1 [Dasatinib] (partner 0.075 µM)
The essentials:
as §1

In the case of HOP-62, the relative viability with Carfilzomib + Olaparib (first compound 0.001 µM) was found to be 0.399; with Carfilzomib + Olaparib (first compound 0.003162 µM) it was 0.397; in the experiment with Carfilzomib + Olaparib (first compound 0.01 µM), 0.443; in the experiment with Carfilzomib + Olaparib (first compound 0.1 µM), 0.0477; with Olaparib + Bortezomib (first compound 0.08 µM) it was 1.21; with Olaparib + Bortezomib (first compound 0.253 µM), 0.55. The relative viability in the experiment with Olaparib + Bortezomib (first compound 2.53 µM) is 0.556; with Olaparib + Bortezomib (first compound 8 µM), 0.211; with Carfilzomib + Crizotinib (first compound 0.001 µM), 0.952; with Carfilzomib + Crizotinib (first compound 0.003162 µM), 0.966; with Carfilzomib + Crizotinib (first compound 0.01 µM), 0.845; with Carfilzomib + Crizotinib (first compound 0.03162 µM), 0.099. The relative viability with Carfilzomib + Crizotinib (first compound 0.1 µM) is 0.0686; with Olaparib + Dasatinib (first compound 0.08 µM), 0.691; with Olaparib + Dasatinib (first compound 0.253 µM), 0.563; with Olaparib + Dasatinib (first compound 2.53 µM), 0.579; with Olaparib + Dasatinib (first compound 8 µM), 0.492.
Take NCI-H1734: the relative viability with Carfilzomib + Olaparib (first compound 0.001 µM) came to 0.649; with Carfilzomib + Olaparib (first compound 0.003162 µM) it was 0.679; with Carfilzomib + Olaparib (first compound 0.01 µM), 0.666; with Carfilzomib + Olaparib (first compound 0.03162 µM) it was 0.547; with Carfilzomib + Olaparib (first compound 0.1 µM) it was 0.113; with Olaparib + Bortezomib (first compound 0.08 µM), 1.06. The relative viability amounted to 0.835 in the experiment with Olaparib + Bortezomib (first compound 0.253 µM); 0.91 in the experiment with Olaparib + Bortezomib (first compound 2.53 µM); 0.614 with Olaparib + Bortezomib (first compound 8 µM); 0.658 with Carfilzomib + Crizotinib (first compound 0.001 µM); 0.836 in the experiment with Carfilzomib + Crizotinib (first compound 0.003162 µM); 0.616 with Carfilzomib + Crizotinib (first compound 0.01 µM). Also, the relative viability with Carfilzomib + Crizotinib (first compound 0.03162 µM) amounted to 0.435; with Carfilzomib + Crizotinib (first compound 0.1 µM), 0.111; with Olaparib + Dasatinib (first compound 0.08 µM) it was 0.458; with Olaparib + Dasatinib (first compound 0.253 µM), 0.399; with Olaparib + Dasatinib (first compound 2.53 µM), 0.421; in the experiment with Olaparib + Dasatinib (first compound 8 µM) it was 0.326.
For ChaGo-K-1, the relative viability stood at 0.447 with Carfilzomib + Olaparib (first compound 0.001 µM); 0.409 in the experiment with Carfilzomib + Olaparib (first compound 0.003162 µM); 0.392 in the experiment with Carfilzomib + Olaparib (first compound 0.01 µM); 0.172 with Carfilzomib + Olaparib (first compound 0.03162 µM); 0.142 with Carfilzomib + Olaparib (first compound 0.1 µM); 1.27 with Olaparib + Bortezomib (first compound 0.08 µM). Also, the relative viability in the experiment with Olaparib + Bortezomib (first compound 0.253 µM) was determined as 0.96; with Olaparib + Bortezomib (first compound 2.53 µM) it was 1.02; with Olaparib + Bortezomib (first compound 8 µM), 0.845; with Carfilzomib + Crizotinib (first compound 0.003162 µM), 1.2; with Carfilzomib + Crizotinib (first compound 0.01 µM) it was 1.18; with Carfilzomib + Crizotinib (first compound 0.03162 µM), 0.634. For the same cell line, the relative viability in the experiment with Carfilzomib + Crizotinib (first compound 0.1 µM) was 0.303; with Olaparib + Dasatinib (first compound 0.08 µM) it was 0.576; in the experiment with Olaparib + Dasatinib (first compound 0.253 µM) it was 0.577; with Olaparib + Dasatinib (first compound 2.53 µM) it was 0.567; with Olaparib + Dasatinib (first compound 8 µM), 0.445.
As for NCI-H2405, the relative viability in the experiment with Carfilzomib + Olaparib (first compound 0.001 µM) was determined as 0.836; in the experiment with Carfilzomib + Olaparib (first compound 0.003162 µM), 0.946; with Carfilzomib + Olaparib (first compound 0.01 µM), 0.915; in the experiment with Carfilzomib + Olaparib (first compound 0.03162 µM) it was 0.699; in the experiment with Carfilzomib + Olaparib (first compound 0.1 µM), 0.211; with Olaparib + Bortezomib (first compound 0.08 µM), 1.04. The relative viability is 0.914 with Olaparib + Bortezomib (first compound 0.253 µM); 1.01 in the experiment with Olaparib + Bortezomib (first compound 2.53 µM); 0.934 in the experiment with Olaparib + Bortezomib (first compound 8 µM); 0.807 with Carfilzomib + Crizotinib (first compound 0.001 µM); 0.916 with Carfilzomib + Crizotinib (first compound 0.003162 µM); 0.866 in the experiment with Carfilzomib + Crizotinib (first compound 0.01 µM). The relative viability with Carfilzomib + Crizotinib (first compound 0.03162 µM) came out at 0.785; with Carfilzomib + Crizotinib (first compound 0.1 µM), 0.175; with Olaparib + Dasatinib (first compound 0.08 µM), 0.192; with Olaparib + Dasatinib (first compound 0.253 µM), 0.181; with Olaparib + Dasatinib (first compound 2.53 µM), 0.204; with Olaparib + Dasatinib (first compound 8 µM), 0.217.
NCI-H727: the relative viability stood at 0.705 in the experiment with Carfilzomib + Olaparib (first compound 0.001 µM); 0.751 with Carfilzomib + Olaparib (first compound 0.003162 µM); 0.859 in the experiment with Carfilzomib + Olaparib (first compound 0.01 µM); 0.62 with Carfilzomib + Olaparib (first compound 0.03162 µM); 0.242 with Carfilzomib + Olaparib (first compound 0.1 µM); 0.844 with Olaparib + Bortezomib (first compound 0.08 µM). The relative viability with Olaparib + Bortezomib (first compound 0.253 µM) is 0.829; in the experiment with Olaparib + Bortezomib (first compound 2.53 µM) it was 0.709; in the experiment with Olaparib + Bortezomib (first compound 8 µM) it was 0.514; in the experiment with Carfilzomib + Crizotinib (first compound 0.001 µM) it was 0.84; with Carfilzomib + Crizotinib (first compound 0.003162 µM), 0.682; with Carfilzomib + Crizotinib (first compound 0.01 µM), 0.871. In addition, the relative viability with Carfilzomib + Crizotinib (first compound 0.03162 µM) was determined as 0.223; with Carfilzomib + Crizotinib (first compound 0.1 µM) it was 0.141; with Olaparib + Dasatinib (first compound 0.08 µM), 0.439; with Olaparib + Dasatinib (first compound 0.253 µM), 0.405; with Olaparib + Dasatinib (first compound 2.53 µM) it was 0.469; in the experiment with Olaparib + Dasatinib (first compound 8 µM) it was 0.324.
Turning to SW 1573, the relative viability in the experiment with Carfilzomib + Olaparib (first compound 0.001 µM) stood at 0.587; with Carfilzomib + Olaparib (first compound 0.003162 µM) it was 0.487; with Carfilzomib + Olaparib (first compound 0.01 µM), 0.215; in the experiment with Carfilzomib + Olaparib (first compound 0.03162 µM) it was 0.0532; with Carfilzomib + Olaparib (first compound 0.1 µM), 0.0533; with Olaparib + Bortezomib (first compound 0.08 µM), 1.03. Moreover, the relative viability in the experiment with Olaparib + Bortezomib (first compound 0.253 µM) is 0.987; in the experiment with Olaparib + Bortezomib (first compound 2.53 µM), 0.769; with Olaparib + Bortezomib (first compound 8 µM), 0.619; with Carfilzomib + Crizotinib (first compound 0.001 µM), 0.887; with Carfilzomib + Crizotinib (first compound 0.003162 µM), 0.864; with Carfilzomib + Crizotinib (first compound 0.01 µM) it was 0.793. Further, the relative viability with Carfilzomib + Crizotinib (first compound 0.03162 µM) stood at 0.261; in the experiment with Carfilzomib + Crizotinib (first compound 0.1 µM) it was 0.0628; with Olaparib + Dasatinib (first compound 0.08 µM), 0.698; with Olaparib + Dasatinib (first compound 0.253 µM) it was 0.456; in the experiment with Olaparib + Dasatinib (first compound 2.53 µM), 0.504; with Olaparib + Dasatinib (first compound 8 µM) it was 0.354.
Take A-427: the relative viability with Carfilzomib + Olaparib (first compound 0.001 µM) is 0.782; with Carfilzomib + Olaparib (first compound 0.003162 µM), 0.827; in the experiment with Carfilzomib + Olaparib (first compound 0.01 µM) it was 0.749; with Carfilzomib + Olaparib (first compound 0.03162 µM) it was 0.271; with Carfilzomib + Olaparib (first compound 0.1 µM), 0.147; with Olaparib + Bortezomib (first compound 0.08 µM) it was 1.03. For the same cell line, the relative viability in the experiment with Olaparib + Bortezomib (first compound 0.253 µM) amounted to 0.96; with Olaparib + Bortezomib (first compound 2.53 µM), 0.877; in the experiment with Olaparib + Bortezomib (first compound 8 µM), 0.673; with Carfilzomib + Crizotinib (first compound 0.001 µM), 0.837; in the experiment with Carfilzomib + Crizotinib (first compound 0.003162 µM), 0.996; with Carfilzomib + Crizotinib (first compound 0.01 µM) it was 0.862. Besides, the relative viability with Carfilzomib + Crizotinib (first compound 0.03162 µM) was determined as 0.212; in the experiment with Carfilzomib + Crizotinib (first compound 0.1 µM), 0.122; in the experiment with Olaparib + Dasatinib (first compound 0.08 µM), 0.793; with Olaparib + Dasatinib (first compound 0.253 µM) it was 0.691; in the experiment with Olaparib + Dasatinib (first compound 2.53 µM) it was 0.586; with Olaparib + Dasatinib (first compound 8 µM), 0.54.
